Laboratory results as given in patent US20030144190A1, “Method of modulating and antiapoptotic and antiapoptotic pathways in cells” (priority 2003, published 2003).

Test system: CREF/RasV12
Test: Apoptosis by flow cytometry (cells with hypodiploid DNA content) in Ras-transformed fibroblasts
Format: cell-based, rat

Structure (SMILES) | lovastatin-induced apoptosis in the presence of translational inhibitors | apoptosis observed in the presence of lovastatin alone (5 μM lovastatin, 24 h)
C[C@@H]1C[C@@H]([C@H](O)CC2CC(=O)NC(=O)C2)C(=O)[C@@H](C)C1 [cycloheximide] | blocked apoptosis | 
CC[C@H](C)C(=O)O[C@H]1C[C@@H](C)C=C2C=C[C@H](C)[C@H](CC[C@@H]3C[C@@H](O)CC(=O)O3)[C@H]21 [lovastatin] |  | 2 to 8%
